Laboratory results as given in publication PMC12566046, “Arylpiperazinyl-Benzocycloheptapyrrole-Carboxamides Endowed with Dual Anticancer and Antiviral Activities” (Molecules, 2025).
Where two headings read alike, the source gives them in different places.

Columns and labels:
[1] = in vitro; settings: dog
[2] = test system: SARS-CoV-2 VR PV10734 (strain Milano); experiment: microbe, parasite or virus in culture; assay type: cell-based; settings: for selectivity index (SI): CC50/EC50
[3] = test system: ZIKV, strain Brazil/2016/INMI1; experiment: ZIKV viral yield reduction assay on Huh-7 cells; assay type: cell-based, Zika virus
Protocol: We developed a protocol to screen the potential antiviral activity of compounds 1–20 against ZIKV (strain Brazil) on Huh-7 cells, against an H1N1 IAV strain (PR/8/1934) on MDCK cells, and against SARS-CoV-2 (strain Milano) on Vero-TMPRSS. Each compound was tested in duplicate at concentrations of 50 μM, 5 μM, and 0.5 μM. Treatment was applied immediately after infection, and at 24–48 h post-infection, supernatants were collected to assess viral yield, determined as PFU/mL for ZIKV and SARS-CoV-2 or as TCID50/mL for IAV. The test allowed us to evaluate both the antiviral action and the cytotoxicity of each compound, comparing them with reference compounds, such as sofosbuvir for ZIKV and EIDD-1931 for IAV and SARS-CoV-2 (Supplementary Materials, Figures S87–S89).
Viral yield reduction assays for ZIKV and SARS-CoV-2 were performed as previously described by Plicanti. Briefly, 1 × 10^4 Huh-7 cells/well and 1.2 × 10^4 VERO TMPRSS cells/well were infected with ZIKV (MOI 1) or SARS-CoV-2 (MOI 0.05) in a primary 96-well plate for 2 h at 37 °C, 5% CO2. […] Supernatants were collected after 48 h (Huh-7) or 24 h (VERO TMPRSS), diluted 3-fold, and added onto VERO E6 or VERO TMPRSS monolayers, respectively. After 2 h at 37 °C, the inoculum was replaced with 0.75% carboxymethyl cellulose (Merck®, Darmstadt, Germany) in DMEM 2% FBS. After 48–72 h, cells were then fixed with 4% buffered formalin solution (Merck®, Darmstadt, Germany) and stained with 1% crystal violet (Merck®, Darmstadt, Germany). Titres and percentage of inhibition were calculated as follows:
PFU/mL = number of plaques*3^n/vol infection, where n is the dilution where plaques were counted:% inhibition = 100 × (1 − Titre-compound/Titre-untreated control) where Titre-compound and Titre-untreated control are the titres (PFU/mL) obtained on cells treated with compound or DMSO, respectively.
SI was obtained by dividing CC50 by EC50 for each drug/virus/cell line. Compounds with SI values ≥ 10 were active in vitro.

[4] = Cytotoxicity on uninfected Huh-7 cells (WST-8, crystal violet); settings: human, uninfected Huh-7 cells
[5] = in vitro; settings: African green monkey
[6] = test system: MOLT-4 (leukemia cell line); experiment: NCI-60 single-dose assay; assay type: cell-based, human; settings: for inhibition at 10 µM: Homo sapiens, MOLT-4, read-out: growth inhibition (GI%) and cytotoxicity (negative values)
Procedure, shortened: (§1)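 Single-dose cytotoxicity test run in the NCI-60 panel of human cancer cell lines. Threshold inhibition criteria across a minimum number of lines decided progression to five-dose testing.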

[7] = test system: SK-MEL-5 (melanoma cell line); experiment: NCI-60 single-dose assay; assay type: cell-based, human; settings: human
Procedure, shortened: as §1

[8] = test system: HCT-15 (colon cancer cell line); experiment: NCI-60 five-dose assay; assay type: cell-based, human; settings: five doses (10^−4–10^−8 M), read-out: Growth inhibition 50 (GI50)
[9] = test system: CNS Cancer panel; experiment: NCI-60 five-dose assay, panel-level GI50 (mean graph midpoint); assay type: cell-based, human; settings: CNS Cancer panel average, read-out: GI50 mean graph midpoint (MG_MID)
Protocol: (§2) Due to these preliminary results, six compounds, 1, 5, 10, 11, 17, and 20, were selected for the five-dose screen NCI-programme against the same panel of tumour cell lines.
(§3) Next, a mean graph midpoint (MG_MD) was calculated for compounds 1, 5, 10, 11, 17, and 20 and reported as waterfall graphs GI50, TGI, and LC50 in the Supplementary Materials (Figures S69–S86). In Table 9, we reported the average GI50 for the nine-cancer panels, underlining both the activity and selectivity for compounds 1, 10, 11, and 20.

[10] = test system: Prostate Cancer panel; experiment: as above; assay type: cell-based, human; settings: Prostate Cancer panel average, read-out: GI50 mean graph midpoint (MG_MID)
Protocol: as §2, §3

[11] = test system: Non-Small Cell Lung Cancer panel; experiment: as above; assay type: cell-based, human; settings: Non-Small Cell Lung Cancer panel average, read-out: GI50 mean graph midpoint (MG_MID)
Protocol: as §2, §3

[12] = test system: Breast Cancer panel; experiment: as above; assay type: cell-based, human; settings: Breast Cancer panel average, read-out: GI50 mean graph midpoint (MG_MID)
Protocol: as §2, §3

[13] = test system: Renal Cancer panel; experiment: as above; assay type: cell-based, human; settings: Renal Cancer panel average, read-out: GI50 mean graph midpoint (MG_MID)
Protocol: as §2, §3

[14] = test system: Ovarian Cancer panel; experiment: as above; assay type: cell-based, human; settings: Ovarian Cancer panel average, read-out: GI50 mean graph midpoint (MG_MID)
Protocol: as §2, §3

[15] = test system: KM12 (colon cancer cell line); experiment: NCI-60 five-dose assay; assay type: cell-based, human; settings: five doses (10^−4–10^−8 M), read-out: Growth inhibition 50 (GI50)
[16] = test system: HT29 (colon cancer cell line); experiment: NCI-60 five-dose assay; assay type: cell-based, human; settings: read-out: Growth inhibition 50 (GI50)
[17] = test system: NCI cancer panel (all cell lines); experiment: NCI-60 five-dose assay, overall mean graph midpoint (MG_MID); assay type: cell-based, human; settings: MG_MID over all panels, read-out: GI50 mean graph midpoint (MG_MID)
Protocol: as §2, §3

[18] = test system: MDA-MB-468 (breast cancer cell line); experiment: NCI-60 single-dose assay; assay type: cell-based, human; settings: for growth inhibition (GI%) and cytotoxicity (negative values): human; for inhibition at 10 µM: Homo sapiens, MDA-MB-468, read-out: growth inhibition (GI%) and cytotoxicity (negative values)
Procedure, shortened: as §1

[19] = test system: IAV strain A/PR/8/34 (H1N1); settings: for IAV/MDCK SI: preliminary screening
[20] = Severe acute respiratory syndrome coronavirus 2, preliminary screening (50, 5, 0.5 μM), Vero TMPRSS, read-out: SARS‐CoV‐2/Vero TMPRSS EC50
[21] = Zika virus, Huh-7, read-out: ZIKV/Huh‐7 EC50
[22] = Zika virus, preliminary screening (50, 5, 0.5 μM), Huh-7, read-out: ZIKV/Huh‐7 EC50
[23] = Severe acute respiratory syndrome coronavirus 2, SARS-CoV-2, VERO TMPRSS cells, 24 h, full dose-response, read-out: EC50

Molecule: COc1ccccc1N1CCN(CCNC(=O)c2[nH]c3c(c2Cl)CCCc2ccccc2-3)CC1 [Compound 5]
- CC50 [1]: 11 µM
- EC50 [2, 20]: 34.9 µM
- EC50 [3, 21]: 3.82 µM
- CC50 at 48 h [4]: 24.3 µM
- CC50 at 24 h [5]: 29.4 µM
- inhibition at 10 µM [6]: 93%
- growth inhibition (GI%) and cytotoxicity (negative values) [7]: −62.59%

Molecule: O=C(NCCCN1CCN(c2ccccc2)CC1)c1cc2c([nH]1)-c1ccccc1CCC2 [Compound 10, N-(3-(4-Phenylpiperazin-1-yl)propyl)-1,4,5,6-tetrahydrobenzo[6,7]cyclohepta[1,2-b]pyrrole-2-carboxamide]
- GI50 ([8]; Homo sapiens): 4.71 µM
- GI50 ([9]; Homo sapiens): 17 µM
- GI50 ([10]; Homo sapiens): 6.61 µM
- GI50 ([11]; Homo sapiens): 9.33 µM
- GI50 ([12]; Homo sapiens): 8.32 µM
- GI50 ([13]; Homo sapiens): 8.71 µM
- GI50 ([14]; Homo sapiens): 12.3 µM
- CC50 [1]: 67.8 µM
- GI50 ([15]; Homo sapiens): 4.89 µM
- GI50 ([16]; Homo sapiens, HT-29, five doses (10^−4–10^−8 M)): 3.14 µM
- EC50 [3, 22]: 3.59 µM
- CC50 at 48 h [4]: 12.4 µM
- GI50 ([17]; Homo sapiens): 7.24 µM
- CC50 at 24 h [5]: 55.7 µM
- inhibition at 10 µM [6]: < 60%
- growth inhibition (GI%) and cytotoxicity (negative values) [18]: −13.75%
- growth inhibition (GI%) and cytotoxicity (negative values) [7]: −72.58%

Molecule: O=C(NCCN1CCN(c2ccccc2)CC1)c1c(Cl)[nH]c2c1CCCc1ccccc1-2 [Compound 12, 2-Chloro-N-(2-(4-phenylpiperazin-1-yl)ethyl)-1,4,5,6-tetrahydrobenzo[6,7]cyclohepta[1,2-b]pyrrole-3-carboxamide]
- CC50 [1]: 32.1 µM
- selectivity index (SI) ([2]; SARS-CoV-2, VERO TMPRSS cells): 63.63
- EC50 [2, 23]: 1.17 µM
- EC50 [2, 20]: 2.26 µM
- EC50 [3, 22]: 1.54 µM
- CC50 at 48 h [4]: 34.2 µM
- CC50 [5]: 74.5 µM
- CC50 at 24 h [5]: 72.8 µM
- inhibition at 10 µM [6]: < 60%
- growth inhibition (GI%) and cytotoxicity (negative values) [7]: −7.83%
- IAV/MDCK SI [19]: 9.18

Molecule: O=C(NCCN1CCN(c2ccc(Cl)cc2)CC1)c1c(Cl)[nH]c2c1CCCc1ccccc1-2 [Compound 13]
- selectivity index (SI) ([2]; SARS-CoV-2, VERO TMPRSS cells): 150.00
- EC50 [2, 23]: 0.66 µM
- EC50 [2, 20]: > 0.5 µM
- selectivity index (SI) ([3]; ZIKV, Huh-7 cells, CC50/EC50): 20.20
- EC50 ([3]; Zika virus, Huh-7, 48 h): 3.08 µM
- EC50 [3, 21]: 1.3 µM
- CC50 at 48 h [4]: 57.9 µM
- CC50 [5]: 99 µM
- CC50 at 24 h [5]: 77.2 µM
- inhibition at 10 µM [6]: 61.7%
- inhibition at 10 µM [18]: 95.3%
- growth inhibition (GI%) and cytotoxicity (negative values) [7]: −21.64%
- IAV/MDCK SI [19]: 5.45

Molecule: O=C(NCCN1CCN(c2ccccc2Cl)CC1)c1c(Cl)[nH]c2c1CCCc1ccccc1-2 [Compound 14]
- CC50 [1]: 15.6 µM
- EC50 [3, 22]: 4.74 µM
- CC50 at 48 h [4]: 30.2 µM
- CC50 at 24 h [5]: 36.7 µM
- inhibition at 10 µM [6]: < 60%
- inhibition at 10 µM [18]: 82.4%
- growth inhibition (GI%) and cytotoxicity (negative values) [7]: −3.84%

Molecule: COc1ccccc1N1CCN(CCNC(=O)c2c(Cl)[nH]c3c2CCCc2ccccc2-3)CC1 [Compound 15]
- CC50 [1]: 8.29 µM
- EC50 [2, 20]: 40.6 µM
- EC50 [3, 21]: 4.74 µM
- CC50 at 48 h [4]: 9.43 µM
- CC50 at 24 h [5]: 38 µM
- inhibition at 10 µM [6]: 76.5%
- inhibition at 10 µM [18]: 94.8%
- growth inhibition (GI%) and cytotoxicity (negative values) [7]: −75.22%
- IAV/MDCK SI [19]: 0.47

Molecule: CCOc1ccccc1N1CCN(CCNC(=O)c2c(Cl)[nH]c3c2CCCc2ccccc2-3)CC1 [Compound 17]
- CC50 [1]: 8.13 µM
- EC50 [3, 22]: 4.46 µM
- CC50 at 48 h [4]: 16.4 µM
- CC50 at 24 h [5]: 37.2 µM
- inhibition at 10 µM [6]: 95.5%
- growth inhibition (GI%) and cytotoxicity (negative values) [18]: −3.78%
- growth inhibition (GI%) and cytotoxicity (negative values) [7]: −88.73%
- IAV/MDCK SI [19]: 0.23

Molecule: N#Cc1ccccc1N1CCN(CCNC(=O)c2c(Cl)[nH]c3c2CCCc2ccccc2-3)CC1 [Compound 18, 2-Chloro-N-(2-(4-(2-cyanophenyl)piperazin-1-yl)ethyl)-1,4,5,6-tetrahydrobenzo[6,7]cyclohepta[1,2-b]pyrrole-3-carboxamide]
- CC50 [1]: 13.9 µM
- EC50 [3, 22]: 4.11 µM
- CC50 at 48 h [4]: 15.5 µM
- CC50 at 24 h [5]: 35 µM
- inhibition at 10 µM [6]: 81.8%
- inhibition at 10 µM [18]: 98.7%
- growth inhibition (GI%) and cytotoxicity (negative values) [7]: −67.02%
- IAV/MDCK SI [19]: 0.28

Molecule: N-(3-(4-Benzylpiperazin-1-yl)propyl)-2-chloro-1,4,5,6-tetrahydrobenzo[6,7]cyclohepta[1,2-b]pyrrole-2-carboxamide [Compound 11]
- GI50 [8]: 3.65 µM
- GI50 [9]: 5.25 µM
- GI50 [10]: 5.13 µM
- GI50 [11]: 7.08 µM
- GI50 [12]: 3.47 µM
- GI50 [13]: 5.89 µM
- GI50 [14]: 7.94 µM
- EC50 ([2]; preliminary screening (50, 5, 0.5 μM), Vero TMPRSS, read-out: SARS‐CoV‐2/Vero TMPRSS EC50): 17.7 µM
- GI50 [15]: 4.11 µM
- GI50 ([16]; five doses (10^−4–10^−8 M)): 2.6 µM
- EC50 ([3]; preliminary screening (50, 5, 0.5 μM), Huh-7, read-out: ZIKV/Huh‐7 EC50): 3.49 µM
- GI50 [17]: 4.47 µM
- growth inhibition (GI%) and cytotoxicity (negative values) ([6]; MOLT-4, 10^−5 M, single dose): 99.74%
- IAV/MDCK SI [19]: 0.30
- EC50 ([19]; read-out: IAV/MDCK EC50, preliminary screening (50, 5, 0.5 μM), MDCK): 17.7 µM
